The values below come from patent US4483833A, “Process for selective removal of H2 S from mixtures containing H2 2 with heterocyclic tertiary aminoalkanols” (Exxon Research & Engineering Co., priority 1982, dated 1984).

Usually boiling point stands for the temperature at which the vapour pressure of the liquid equals the pressure above it. A word on the pKa: it is the negative logarithm of the acid dissociation constant. A low value points to a group that gives up its proton readily.

A short description of data set [1]: Boiling point (volatility) of aminoalkanol. Format: physicochemical. From the text: Also, to insure operational efficiency with minimal losses of the amino compound, the amino compound should have a relatively low volatility. […]
It can be seen that in each case the boiling points increase relative to the respective parent compound while the pKa remains constant.

Data set [2] can be described thus: pKa of aminoalkanol. Format: physicochemical. The following applies: at 20° C.
The conditions of data set [3]: pressure not stated; background; cited from earlier work.
Data set [4] is described as follows: 15N NMR chemical shift as a means of determining selectivity to H2S removal. Format: physicochemical. The following applies: 90% by wt. amine in 10% by wt. D2O, 35° C.; liquid ammonia at 25° C. as zero reference. The procedure: Another means for determining whether an amino compound is selective to H2 S removal is by measuring its 15N nuclear magnetic resonance (NMR) chemical shift. […] D2 O at 35° C. is measured by a spectrometer using liquid (neat) ammonia at 25° C. as a zero reference value. For example, N-(2-hydroxyethoxyethyl)pyrrolidine (HEEP) has a ^15 N NMR chemical shift value of δ+53.2 ppm whereas diethylmonoethanolamine (DEAE), N-methyl-N-tertiarybutylaminoethoxyethanoland methyldiethanolamine (MDEA) have ^15 N NMR chemical shift values of δ+43.7, δ+45.0 and δ+27.4 ppm, respectively.

Where two headings read alike, the source gives them in different places.

`CC(CCO)N1CCCC1` (stereo not drawn) [H2BP, N-(4-hydroxy-2-butyl)pyrrolidine] returned a boiling point in data set [1] (at 7 mm) of 98 °C. In addition, the pKa in data set [2] is on record as 10.25.
`CN1CCCCC1CCO` (stereo not drawn) [MHEPi, N-methyl-2-hydroxyethylpiperidine] gave a boiling point in data set [1] (at 760 mm) of 233 °C. This compound also registered a pKa in data set [2] of 9.90.
For the compound `OCCCCN1CCCC1` [HBP, N-(4-hydroxybutyl) pyrrolidine], the boiling point in data set [1] (at 2 mm) was 95 °C. Besides, the pKa in data set [2] is listed as 10.21.
`CCN(CC)CCO` [DEAE, diethylmonoethanolamine]: the boiling point in data set [3] is 161 °C.
With `OCCCN1CCCC1` [drawing 3], the boiling point in data set [1] (at 13 mm) is 101 °C. For the same compound, in data set [2], the pKa is given as 10.20.
On to `OCCCN1CCCC1` [HPP, N-(3-hydroxypropyl)pyrrolidine], for which the boiling point in data set [1] (at 13 mm) came to 103 °C. Besides, in data set [2], the pKa is given as 10.21.
Take `OCCOCCN1CCCC1` [HEEP, N-(2-hydroxyethoxyethyl)pyrrolidine]: the boiling point in data set [1] (at 5 mm) was found to be 110 °C. Also, in data set [4], the “15N NMR chemical shift (δ+)” value is 53.2 ppm. In addition, the pKa in data set [2] was found to be 9.95.
`CC(O)CN1CCCC1` (stereo not drawn): in data set [1] (at 14 mm), the boiling point is 75 °C. The compound also had a pKa in data set [2] of 10.20.
Compound `OCCN1CCCC1` [HEP, N-hydroxyethylpyrrolidine] displayed a boiling point in data set [1] (at 13 mm) of 80 °C. Further, the pKa in data set [2] was determined as 9.95.
The compound `OCCOCCCN1CCCC1` displayed a boiling point in data set [1] (at 20 mm) of 140 °C. For the same compound, in data set [2], the pKa was 10.20.
`OCCCN1CCCCC1` [HPPi, N-(3-hydroxypropyl)piperidine] showed a boiling point in data set [1] (at 5 mm) of 97 °C. For the same compound, in data set [2], the pKa came to 10.2.
As for `CC(O)COC(C)CN1CCCC1` (stereo not drawn), in data set [1] (at 1 mm), the boiling point is 100 °C. Also, in data set [2], the pKa was found to be 10.20.
